For this experiment, the system named is T1, Mm3 (β-lactamase from Moss metagenome clone 3; blaMm3).
T1 construct: mix of tagged 35 kDa and 32 kDa species lacking tag
The experiment in a line: spectrophotometric hydrolysis at […] nm, initial rates. It counts as biochemical, uncultured bacterium. Conditions: 20 mM sodium phosphate, 0.2 M NaCl, pH 7.4, 30 °C.

Each structure is given as a SMILES string.

This note sets out measurements from PMC8027415, “Plant resistome profiling in evolutionary old bog vegetation provides new clues to understand emergence of multi-resistance” (The ISME Journal, 2020).

For `CC1(C)S[C@@H]2[C@H](NC(=O)[C@H](N)c3ccccc3)C(=O)N2[C@H]1C(=O)O` [ampicillin], the Michaelis-Menten constant (Km) (commonly the substrate concentration at which the rate is half of its maximum) (fitted with the Hill equation (half-saturation constant)) was determined as 271 ± 16.4 µM.
Take `CC1(C)S[C@@H]2[C@H](NC(=O)C(C(=O)O)c3ccccc3)C(=O)N2[C@H]1C(=O)O` (some centres unmarked) [carbenicillin]: the Km (fitted with the Michaelis-Menten equation) came to 400 ± 42.7 µM.
